From patent US20230151100A1, “Method of Selecting Patients for Treatment with a Combination of an AXL Inhibitor and an Immune Checkpoint Modulator” (BERGENBIO ASA, priority 2020, published 2023)

Assays:
[1] = system: CD8^+ T cell clusters in KPL9-3-1 TME; assay: scRNAseq with paired TCR sequencing of CD8^+ T cell clusters in KPL9-3-1 tumors; format: in vivo, mouse; details: observed versus expected cell number per cluster
Description: The immune landscape of the tumors from each treatment group was assessed using scRNAseq of immune cells. Sequenced scRNA-seq samples were processed through Cellranger pipelines (v3.1.0). Cellranger count was used to align reads to mouse reference genome (mm10, 2020-A, from 10× Genomics) and generate single cell feature counts for single library.
For scTCR-seq data, TCR reads were aligned to reference genome and TCR annotation was performed using the 10×cellranger vdj pipeline with provided reference (cellranger-vdj-GRCm38-alts-ensemb1-4.0.0). Overall, 94% of T cells in scRNA-seq data were assigned a TCR and more than 70% had at least one full-length productive CDR3 for both TRA and TRB. The clonotype of each T cell was represented by the beta CDR3 sequences, and clone sizes ranged from 1 cell to 580 cells. Cellranger aggr were applied next to aggregate each sample library for grouped analysis with same effective sequencing depth. Seurat (3.2.1) package was used for downstream analysis.
To determine the potential lineage differentiation between those T cell populations with high TCR sharing. Monocle (version 2.0) (PMID: 24658644) was used to investigate transcriptional and developmental trajectories concerning different CD8+ or CD4+ T cell clusters. The data of raw counts together with cluster annotations were taken as input to monocle, and the default parameters were set to run data normalization and dimension reduction. Next, Monocle leaned the kinetics of gene expression by using the reversed graph embedding approach and places each cell along an inferred pseudotime trajectory. According to the assumption that the trajectory has a tree structure, functional “State” is identified based on the segment of the tree-like structure. […]
Treatment enriched cells in each cluster were calculated and compared based on the number of cells observed divided by expected number of cells in each cluster (FIG. 8D).

KPL9-3-1 tumor cells = assay: KPL9-3-1 subcutaneous allograft tumor growth; format: in vivo, mouse (C57BL/6J); details: KPL9-3-1 tumors; BGB324 50 mg/kg oral gavage twice daily, anti-PD-1 10 mg/kg i.p., alone or in combination; 3 weeks
Description: (§1) Control group were treated with control IgG (10 mg/kg) and vehicle (50 mg/kg). Tumor growth was measured every 3 days. […] The ratio of observed cell numbers to random expectation estimated by Roie index through chi-square test. +++ (Roien, P<0.05) represents highly enriched, ++ (1.2≤Ro/e<3, P<0.05) represents enriched, + (0.8≤Ro/e<1.2, P<0.05) represents weakly enriched, − (0<Ro/e<0.8, P<0.05) represents not significant or reduced.
For subcutaneous allografts, 1×10^6 cells in 100 ul phosphate buffered saline (PBS) were injected into the right dorsal flanks of 6-8 wks old mice. For xenografts growing on humanized mice, 1.5×10^6 cells in 100 ul phosphate buffered saline (PBS) were injected into the right dorsal flanks of reconstituted humanized mice.
Tumor bearing mice were randomly assigned into treatment groups when the tumor grew to around 100-150 mm^3. For each treatment group, 5 mice were assigned. 10 mg/kg anti-PD-1 (BioXCell, Cat #BE0146) treatment was given intraperitoneally on day 0, day 4 and day 7 after innoculation. The control group was treated with 10 mg/kg rat IgG2a isotype control (BioX Cell, Cat #BE0089) at the same day of PD-1 treatment, intraperitoneally. For the tumor growth measurement experiment, mice were treated for 3 weeks. […] Tumor volumes were measured by length (a), width (b) and height (h) in every 3 days and calculated as tumor volume=abh. […]

[2] = system: Kras^G12D, p53 WT STK11^−/− mutant human A549 lung cancer cells; assay: A549 xenografts in humanized mice, tumor volume; format: in vivo; details: anti-PD1 10 mg/kg i.p. 3 dosages, BGB324 50 mg/kg oral gavage twice daily for 3 weeks, or both
Description: Human non-small cell lung cancer (NSCLC) cells Kras^G12D, p53 WT STK11^−/− mutant human A549 lung cancer cells were cultured using standard protocols.
Each animal was weighed before cell implantation. Injection of the cells was performed after anesthetizing of the mice. Kras^G12D, p53 WT STK11^−/− mutant human A549 lung cancer cells were implanted subcutaneously in humanized immune-deficient mice.
Mice were treated with either placebo, anti-PD1 therapy (10 mg/kg, intraperitoneal, 3 dosages), BGB324 (50 mg/kg, oral gavage, twice daily for 3 weeks) or a combination of both drugs.

[3] = system: Bone marrow derived BMDCs; assay: BMDC co-culture with irradiated KPL9-3-1 tumor cells, IFN beta ELISA; format: cell-based, mouse; details: BGB324 40 nM, 24 h; supernatant ELISA; versus DMSO
Description: Bone marrow derived BMDCs (2×10^5) were co-cultured with […] irradiated KPL9-3-1 tumor cells (2×10^6), with or without BGB324 treatment (40 nM). After 24 h, the cell supernatant was collected for analysis. The concentration of […] was measured by VeriKine-HS Mouse IFN Beta Serum ELISA kit (PBL Assay Science, Cat #42410), or VerKine Human IFN Beta ELISA kit (PBL Assay Science, Cat #414101) in accordance with the manufacturer's instructions. The plates were visualized by adding 100 μL of TMB solution and read at 450 nm using the SPECTROstarNano (BMG LABTECH).
The cells were treated with BGB324 or DMSO.

[4] = system: TCF1^+PD-1^+ CD8^+ T cells in KPL9-3-1 tumors; assay: Tumor microenvironment analysis of KPL9-3-1 tumors (flow cytometry, IHC); format: in vivo, mouse (C57BL/6J)
Description: as §1
KPL9-3-1 allograft were implanted into mice as described above. 5 mice were assigned into each treatment group. 10 mg/kg anti-PD-1 (BioXCell, Cat #BE0146) treatment was given intraperitoneally on day 0, day 4 and day 7 after treatment. Control group of PD-1 treatment was treated with 10 mg/kg rat IgG2a isotype control (BioX Cell, Cat #BE0089) at the same day of PD-1 treatment, intraperitoneally. BGB324 were given through oral gavage twice daily, with a dose of 50 mg/kg.
For tumor growth measurement experiment, mice were treated for 3 weeks. For tumor microenvironment analysis, mice were treated for 7 days, when the tumor sizes in each treatment group are within 2-fold differences.Seven days after tumor inoculation, mice were treated with either BGB324 or anti-PD-1 alone, or in combination.

[5] = system: Kras^G12D, p53^−/− STK11^−/− mutant (KPL9-3) mouse lung cancer-derived cells; assay: Subcutaneous KPL9-3 tumors in immune-competent mice, tumor volume; format: in vivo, mouse (C57Bl/6); details: anti-PD1 10 mg/kg i.p. twice a week for two weeks, BGB324 50 mg/kg oral gavage twice daily, or both
Description: Kras^G12D, p53^−/− mutant (KP9-1) or Kras^G12D, p53^−/− STK11^−/− mutant (KPL9-3) mouse lung cancer-derived cell lines were prepared using standard techniques known in the art. KP9-1 or KPL9-3 cells were propagated at sub-confluence and split on a regular basis.
Each animal was weighed before cell implantation. Injection of cells was performed after anesthetizing of the mice. The cell lines discussed above were injected subcutaneously into immune-competent mice (C57Bl/6 strain).
Mice were treated with either placebo or anti-PD1 therapeutic (200 μg/mouse, intraperitoneal, twice a week for two weeks).Tumor volume was assessed using hand held callipers and mouse weight were followed.
The Kras^G12D, p53^−/− STK11^−/− mutant (KPL9-3) mouse lung cancer-derived cells described above were implanted subcutaneously in immune-competent mice (C57Bl/6 strain) using the same protocol as described above.
Mice were treated with either placebo, anti-PD1 therapeutic (10 mg/kg, intraperitoneal, twice a week for two weeks), BGB324 (50 mg/kg, oral gavage, twice daily) or a combination of both drugs. Tumor volumes were measured.

OT-1 CD8^+ T cells = assay: BMDC co-culture with OT-1 CD8^+ T cells stimulated with ovalbumin, TCF1 expression by flow cytometry; format: cell-based, mouse; details: co-cultures of BMDC with OT-1 CD8^+ T cells stimulated by ovalbumin
[6] = system: TCF1^+PD-1^+ cells among CD8^+ TILs; assay: Intratumoral injection of IFNα, TCF1^+PD-1^+ CD8^+ TILs; format: in vivo, mouse; details: IFNα 200 ng intratumoral, 48 h
Description: Tumor tissues were excised and digested with 2 mg/mL Collagenase A (Sigma, Cat #SCR136) and 1 mg/ml DNase I (Roche, Cat #11284932001) under 37° C., 150 rpm shaking speed for 45 min. Digested materials then were transferred to a 70 μm cell strainer to remove clumped cells. Digested cells were washed twice with FACs buffer and ready for flow cytometry analysis.

[7] = system: non-small cell lung cancer; assay: Earlier lines of therapy of trial patients 234008 and 211105 (case history); format: in vivo, human

Nc1nc(Nc2ccc3c(c2)CC[C@@H](N2CCCC2)CC3)nn1-c1cc2c(nn1)-c1ccccc1CCC2 [BGB324, 1-(6,7-dihydro-5H-benzo[6,7]cyclohepta[1,2-c]pyridazin-3-yl)-N^3-((7-(S)-pyrrolidin-1-yl)-6,7,8,9-tetrahydro-5H-benzo[7]annulene-2-yl)-1H-1,2,4-triazole-3,5-diamine]
enrichment of clonal expanded CD8^+ T cells (unique TCRs) [1]: enriched CD8^+ T cells expressing unique TCRs (clonal expanded) significantly
enrichment of exhaustive effector CD8^+ T cells [1]: also enriched
enrichment of stem like T cells [1]: also enriched
tumor growth control (KPL9-3-1 tumor cells): Neither single treatment resulted in tumor growth control
tumor sensitivity to therapy (tumor volume) [2]: resistant
secretion of Interferon type 1β (IFNβ) [3]: increased
infiltration of TCF1+PD-1^+ CD8^+ T cells ([4]; flow cytometry, day 7 after treatment started): increased
TCF1^+PD-1^+ CD8^+ T cell presence in the tumor ([4]; immunohistochemistry): enhanced
distribution of CD8+ cells relative to tumor islands ([4]; immunohistochemistry): large population of CD8+ cells, but these are grouped together, excluded from the tumor islands
tumor sensitivity to therapy (tumor volume) [5]: resistant
TCF1^+ expression on CD8^+ T cells (OT-1 CD8^+ T cells): increased

IFNα [reference compound]
TCF1^+PD-1^+ cells among CD8^+ TILs after intratumoral injection [6]: phenocopied
TCF1^+ expression on CD8^+ T cells (OT-1 CD8^+ T cells): increased

carboplatin and paclitaxel
duration of response to first-line therapy before progression ([7]; patient 234008): 22 months
response to first-line therapy ([7]; patient 234008, before enrolling in the study): partial response

pembrolizumab: anti-PD-1 antibody, immune checkpoint inhibitor
duration of clinical benefit before progression ([7]; patient 211105, monotherapy after first-line progression): 18 months
